In one assay the test system is Kuramochi cells. Briefly: IncuCyte cell proliferation assay. It counts as cell-based. The settings on record: Kuramochi cells labeled with mApple-H2B, cell count 0 to 72 hours, 20 μM top concentration; read-out: IncuCyte Kuramochi RB-WT: IC50. In a few lines: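 Kuramochi cells expressing mApple-H2B were treated with a 10-point, ½-log dilution series (top 20 μM). Fluorescent nuclei were counted by IncuCyte imaging at 0 and 72 h. The fold change in cell count was normalized to DMSO wells and fitted to dose-response curves to give […].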

The target in assay [1] is T1, CDK2/Cyclin E1 (Homo sapiens, UniProt P24941). Kind of assay: CDK2/Cyclin E1 Caliper LabChip EZ Reader mobility shift assay. The class given is biochemical. The conditions noted are these: 2.5 nM CDK2/Cyclin E1, 100 μM ATP, 1.5 μM fluorescent peptide, 30 min pre-incubation; read-out: Caliper Assay (CDK2/CCNE1): IC50. The protocol:
Inhibition of CDK2/Cyclin E1 activity in the presence of compounds of the present disclosure was evaluated using a CaliperLabChip® EZ Reader mobility shift assay. In the assay, CDK2/Cyclin E1 (Eurofins, 14-475) catalyzed the phosphorylation of a fluorescently tagged peptide 5-FAM-QSPKKG-CONH2 (PerkinEliner, FL Peptide 18) which induced a difference in capillary electrophoresis mobility. The peptide substrate and product were measured, and the conversion ratio was used to determine the inhibition (as % activity and IC50 values) of CDK2/Cyclin E1. Reactions contained 50 mM HEPES pH 7.5, 10 mM MgCl2, 1 mM EDTA, 2 mM DTT, 0.01% Brij35, 0.5 mg/mL BSA, 0.1% DMSO, 2.5 nM CDK2/Cyclin E1, 100 μM ATP, and 1.5 μM fluorescent peptide substrate.
Dose titrations of inhibitors in 100% DMSO were combined with 3.25 nM CDK2/Cyclin E1 and 130 μM of ATP in reaction buffer. The mixtures were incubated for 30 minutes before the addition of fluorescent peptide substrate to initiate the kinase reaction. The final conditions were 2.5 nM CDK2/Cyclin E1, 100 μM ATP, and 1.5 μM fluorescent peptide. The reactions were stopped after 100 minutes with the addition of EDTA (400 mM final EDTA concentration). The stopped reactions were analyzed on a Caliper LabChip® EZ Reader II. The conversion ratios were normalized to yield % activity, plotted against compound concentration, and fit to a four-parameter equation to determine the IC50 for each compound.

For assay [2], the target named is T1, CDK2/Cyclin E1. Briefly: ADP-Glo Luminescent Kinase Assay (CDK2/E1-37C). The conditions noted are these: 0.18 nM CDK2/Cyclin E1, 100 μM ATP, 1.5 μM Histone H1, 37° C., 60 min pre-incubation; read-out: ADPGLO (CDK2/E1-37C): IC50. It counts as biochemical. In a few lines:
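Human CDK2/Cyclin E1 preincubated with inhibitor 60 min at 37 °C, then reacted 90 min at 37 °C with final 0.18 nM enzyme, 100 μM ATP, 1.5 μM Histone H1 in HEPES pH 7.5 buffer. ADP formed read by ADP-Glo luminescence; IC50 from four-parameter fit.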
(In ADP-Glo the light output rises with the ADP produced.)

Here are results for 9 compounds from patent US20260265262A1, “CDK2 INHIBITORS AND METHODS OF USING THE SAME” (Cedilla Therapeutics, Inc., priority 2022, published 2026).

Molecules are shown by their SMILES. pIC50: −log10 of the molar value. Where only a bound is given, the exact number is not on record here.

`COC1CCN(C(=O)[C@@H](NC(=O)[C@@H]2CN(C(=O)c3cncs3)CC23CN(C(=O)[C@H]2CC2(C)C)C3)[C@@H](C)OCC2(CO)CC=CCC2)CC1` (stereo in doubt) [Example I-54]: the pIC50 in the assay with Kuramochi cells is 5.30 to 6.30; on CDK2/Cyclin E1 [1], greater than 8.00.

Consider `COC1CCN(C(=O)[C@@H](NC(=O)[C@@H]2CN(C(=O)c3sc(C)nc3C)CC23CN(C(=O)[C@H]2CC2(C)C)C3)[C@@H](C)OCC2(CO)CC=CCC2)CC1` (stereo in doubt) [Example I-55], for which the pIC50 with Kuramochi cells was less than 4.70; on CDK2/Cyclin E1 [1] it was 7.00 to 8.00.

Turning to `COC(=O)[C@@H]1CCCCN1C(=O)[C@@H](NC(=O)[C@@H]1CN(C(=O)c2cnn(Cc3ccccc3)c2)CC12CN(C(=O)[C@H]1CC1(C)C)C2)[C@@H](C)OCC1CCCCC1` [Example I-38], the pIC50 is greater than 6.30 with Kuramochi cells, greater than 8.00 at CDK2/Cyclin E1 [1] and greater than 6.30 on CDK2/Cyclin E1 [2].

Consider `COC(=O)C1(CNC(=O)[C@@H](NC(=O)[C@@H]2CN(C(=O)c3cnn(Cc4ccccc4)c3)CC23CN(C(=O)[C@H]2CC2(C)C)C3)[C@@H](C)OCC2CCCCC2)CC1` [Example I-39], for which the pIC50 in the assay on Kuramochi cells was greater than 6.30; at CDK2/Cyclin E1 [1], greater than 8.00; at CDK2/Cyclin E1 [2], greater than 6.30.

As to `Cc1nc(C)c(C(=O)N2C[C@@H](C(=O)NC(C(=O)N3CCC(C(F)(F)F)CC3)[C@@H](C)OCC3(CO)CC=CCC3)C3(C2)CN(C(=O)[C@H]2CC2(C)C)C3)s1` (stereo partly drawn) [Example I-50, (8S)-2-((S)-2,2-dimethylcyclopropane-1-carbonyl)-6-(2,4-dimethylthiazole-5-carbonyl)-N-((2S,3R)-3-((1-(hydroxymethyl)cyclohex-3-en-1-yl)methoxy)-1-oxo-1-(4-(trifluoromethyl)piperidin-1-yl)butan-2-yl)-2,6-diazaspiro[3.4]octane-8-carboxamide], the pIC50 in the assay on Kuramochi cells was 5.30 to 6.30; at CDK2/Cyclin E1 [1] it was greater than 8.00.

For `C[C@@H](OCC1(CO)CC=CCC1)[C@H](NC(=O)[C@@H]1CN(C(=O)c2cncs2)CC12CN(C(=O)[C@H]1CC1(C)C)C2)C(=O)N1CCC(C)(C)CC1` (some centres unmarked) [Example I-53], the values for the pIC50 with Kuramochi cells and on CDK2/Cyclin E1 [1] were greater than 6.30 and greater than 8.00, respectively.

With `Cc1nc(C)c(C(=O)N2C[C@@H](C(=O)NC([C@@H](C)OCC3(CO)CC=CCC3)C(C)(C)O)C3(C2)CN(C(=O)C(C)(C)C2CC2)C3)s1` (stereo partly drawn) [Example I-56, (8S)-2-(2-cyclopropyl-2-methylpropanoyl)-6-(2,4-dimethylthiazole-5-carbonyl)-N-((4R)-2-hydroxy-4-((1-(hydroxymethyl)cyclohex-3-en-1-yl)methoxy)-2-methylpentan-3-yl)-2,6-diazaspiro[3.4]octane-8-carboxamide], the pIC50 is less than 4.70 with Kuramochi cells and 5.00 to 6.00 at CDK2/Cyclin E1 [1].

Consider `CNC(=O)C(NC(=O)[C@@H]1CN(C(=O)c2cncs2)CC12CN(CC1CCCO1)C2)[C@@H](C)OCC12CCC(CC1)OC2` (stereo partly drawn) [Example I-59, (8S)—N-((3R)-3-((2-oxabicyclo[2.2.2]octan-4-yl)methoxy)-1-(methylamino)-1-oxobutan-2-yl)-2-((tetrahydrofuran-2-yl)methyl)-6-(thiazole-5-carbonyl)-2,6-diazaspiro[3.4]octane-8-carboxamide], for which the values for the pIC50 with Kuramochi cells and on CDK2/Cyclin E1 [1] were 4.70 to 5.30 and 6.00 to 7.00, respectively.

Regarding `COC[C@H]1CCCN(C(=O)[C@@H](NC(=O)[C@H]2CN(C(=O)c3cncs3)CC23CN(C(=O)[C@H]2CC2(C)C)C3)[C@@H](C)OCC2CCCCC2)C1` [Example I-116, (R)—N-((2S,3R)-3-(cyclohexylmethoxy)-1-((S)-3-(methoxymethyl)piperidin-1-yl)-1-oxobutan-2-yl)-2-((S)-2,2-dimethylcyclopropanecarbonyl)-6-(thiazole-5-carbonyl)-2,6-diazaspiro[3.4]octane-8-carboxamide], the pIC50 in the assay on Kuramochi cells was 4.70 to 5.30; at CDK2/Cyclin E1 [1] it was 6.00 to 7.00.
